Source: patent publication US6274715A, “Tricyclic erythromycin derivatives” (priority 1997, dated 2001)
Values after ≈ are worked out from the molar mass of the structure shown. Like-named read-outs stand apart in the source and are kept apart here.

Columns and labels:
Format in all cases: cell-based
[1] = system: PSEUDOMONAS AERUGINOSA 5007; assay: In vitro antibacterial activity, MIC, BHI agar dilution; details: P. aeruginosa 5007, unit assumed
[2] = system: STAPHYLOCOCCUS EPIDERMIDIS 3519; details: S. epidermidis 3519, BHI agar, unit assumed
[3] = system: EN[…] ATCC 8043; assay: In vitro antibacterial activity, MIC, BHI agar dilution; details: E. faecium ATCC 8043, unit assumed
Method: (§1) Representative compounds of the present invention were assayed in vitro for antibacterial activity as follows: Twelve petri dishes containing successive aqueous dilutions of the test compound mixed with 10 mL of sterilized Brain Heart Infusion (BHI) agar (Difco 0418-01-5) were prepared. Each plate was inoculated with 1:100 (or 1:10 for slow-growing strains, such as Micrococcus and Streptococcus) dilutions of up to 32 different microorganisms, using a Steers replicator block. The inoculated plates were incubated at 35-37° C. for 20 to 24 hours. In addition, a control plate, using BHI agar containing no test compound, was prepared and incubated at the beginning and end of each test.
(§2) An additional plate containing a compound having known susceptibility patterns for the organisms being tested and belonging to the same antibiotic class as the test compound was also prepared and incubated as a further control, as well as to provide test-to-test comparability. Erythromycin A was used for this purpose.
(§3) After incubation, each plate was visually inspected. The minimum inhibitory concentration (MIC) was defmed as the lowest concentration of drug yielding no growth, a slight haze, or sparsely isolated colonies on the inoculum spot as compared to the growth control.

[4] = system: M[…] ATCC 9341; assay: as above; details: M. luteus ATCC 9341, unit assumed
Method: as §1, §2, §3

[5] = system: STR[…] 508; assay: as above
Method: as §1, §2, §3

[6] = system: PSEUDOMONAS AERUGINOSA BMH10; assay: as above
[7] = system: CANDIDA ALBICANS CCH 442; assay: as above
[8] = system: ESCHERICHIA COLI JUHL; details: E. coli JUHL, BHI agar, unit assumed
[9] = system: PSEUDOMONAS AERUGINOSA K799/61; assay: In vitro antibacterial activity, MIC, BHI agar dilution
[10] = system: STREPTOCOCCUS PYOGENES PIU 2548; assay: as above
[11] = system: PSEUDOMONAS AERUGINOSA DPHD-2862; assay: as above; details: P. aeruginosa DPHD-2862, unit assumed
[12] = system: STAPHYLOCOCCUS AUREUS A-5278; assay: as above; details: S. aureus A-5278, unit assumed
[13] = system: ESCHERICHIA COLI H560; assay: as above
[14] = system: STAPHYLOCOCCUS AUREUS 1775; assay: as above; details: S. aureus 1775, unit assumed
[15] = system: MYCOBACTERIUM SMEGMATIS ATCC 114; assay: as above; details: M. smegmatis ATCC 114, unit assumed
[16] = system: PSEUDOMONAS AERUGINOSA K799/WT; assay: as above; details: P. aeruginosa K799/WT
[17] = system: STAPHYLOCOCCUS AUREUS CMX 642A; assay: as above; details: S. aureus CMX 642A, unit assumed
[18] = system: STAPHYLOCOCCUS AUREUS NCTC10649M; assay: as above; details: S. aureus NCTC10649M, unit assumed
[19] = system: PSEUDOMONAS AERUGINOSA DPHD-5263; assay: as above; details: P. aeruginosa DPHD-5263, unit assumed
[20] = system: STAPHYLOCOCCUS AUREUS ATCC 6538P; assay: as above; details: S. aureus ATCC 6538P, 35-37° C., 20 to 24 hours, listed as Ex 35, unit assumed
[21] = system: STREPTOCOCCUS PYOGENES 930; assay: as above
[22] = system: PROVIDENCIA STUARTII CMX 640; details: P. stuartii CMX 640; BHI agar; unit assumed
[23] = system: STREPTOCOCCUS BOVIS A-5169; assay: In vitro antibacterial activity, MIC, BHI agar dilution; details: S. bovis A-5169, unit assumed
[24] = system: ENTEROBACTER AEROGENES ATCC 13048; assay: as above
[25] = system: KLEBSIELLA PNEUMONIAE ATCC 8045; assay: as above; details: K. pneumoniae ATCC 8045, unit assumed
[26] = system: PSEUDOMONAS CEPACIA 296I; assay: as above; details: P. cepacia 296I, unit assumed
[27] = system: ESCHERICHIA COLI KNK 437; details: E. coli KNK 437; BHI agar; unit assumed
[28] = system: ESCHERICHIA COLI DC-2; assay: In vitro antibacterial activity, MIC, BHI agar dilution; details: E. coli DC-2, unit assumed
[29] = system: STAPHYLOCOCCUS AUREUS CMX 553; assay: as above; details: S. aureus CMX 553, unit assumed
[30] = system: M[…] ATCC 4698; assay: as above; details: M. luteus ATCC 4698, unit assumed
Method: as §1, §2, §3

[31] = system: ESCHERICHIA COLI SS; assay: as above; details: E. coli SS
[32] = system: STREPTOCOCCUS PYOGENES EES61; assay: as above
[33] = S. agalactiae CMX 508, unit assumed
[34] = C. albicans CCH 442, unit assumed
[35] = P. aeruginosa BMH10, unit assumed
[36] = S. pyogenes PIU 2548, unit assumed
[37] = S. pyogenes EES61, unit assumed
[38] = E. aerogenes ATCC 13048, unit assumed

| Compound | MIC [1] | MIC [3] | MIC [4] | MIC [5, 33] | MIC [7, 34] | MIC [11] | MIC [12] | MIC [14] | MIC [15] | MIC [17] | MIC [18] | MIC [19] | MIC ([21]; S. pyogenes 930, unit assumed) | MIC [22] | MIC [23] | MIC [25] | MIC [26] | MIC [27] | MIC [30] | MIC [10, 36] | further results |
| --- | --- | --- | --- | --- | --- | --- | --- | --- | --- | --- | --- | --- | --- | --- | --- | --- | --- | --- | --- | --- | --- |
| CCC1OC(=O)C(C)C(=O)C(C)C(OC2OC(C)CC(N(C)C)C2O)C(C)(OC)CC(C)C2=NCC(CCc3ccccc3)N3C(=O)OC1(C)C3C2C (stereo not shown) [Example 35] | > 100 µg/mL | 0.2 µg/mL (≈ 0.27 µM) | 0.2 µg/mL (≈ 0.27 µM) | 0.02 µg/mL (≈ 0.027 µM) | > 100 µg/mL | > 100 µg/mL | > 100 µg/mL | > 100 µg/mL | 0.39 µg/mL (≈ 0.526 µM) | 0.78 µg/mL (≈ 1.05 µM) | 0.78 µg/mL (≈ 1.05 µM) | > 100 µg/mL | 50 µg/mL (≈ 67.4 µM) | > 100 µg/mL | 0.01 µg/mL (≈ 0.0135 µM) | > 100 µg/mL | 100 µg/mL (≈ 135 µM) | 100 µg/mL (≈ 135 µM) | – | – | MIC ([2]; listed as Ex 35): 0.39 µg/mL (≈ 0.526 µM); MIC ([6]; P. aeruginosa BMH10, listed as Ex 35, unit assumed): > 100 µg/mL; MIC ([8]; listed as Ex 35): > 100 µg/mL; MIC ([9]; P. aeruginosa K799/61, listed as Ex 35, unit assumed): 3.1 µg/mL (≈ 4.18 µM); MIC ([10]; S. pyogenes PIU 2548, listed as Ex 35, unit assumed): 0.39 µg/mL (≈ 0.526 µM); MIC ([13]; E. coli H560, listed as Ex 35, unit assumed): 50 µg/mL (≈ 67.4 µM); MIC ([16]; listed as Ex 35, unit assumed): > 100 µg/mL; MIC [20]: 0.39 µg/mL (≈ 0.526 µM); MIC ([24]; E. aerogenes ATCC 13048, listed as Ex 35, unit assumed): 100 µg/mL (≈ 135 µM) |
| CC[C@H]1OC(=O)[C@H](C)C(=O)[C@H](C)[C@@H](O[C@@H]2O[C@H](C)C[C@H](N(C)C)[C@H]2O)[C@](C)(OC)C[C@@H](C)C2=NC3CN(CC)CC3N3C(=O)O[C@@]1(C)[C@H]3[C@H]2C (stereo partly shown) [Example 115] | > 100 µg/mL | 0.1 µg/mL (≈ 0.141 µM) | 0.1 µg/mL (≈ 0.141 µM) | 0.05 µg/mL (≈ 0.0707 µM) | > 100 µg/mL | > 100 µg/mL | > 100 µg/mL | > 100 µg/mL | 12.5 µg/mL (≈ 17.7 µM) | 1.56 µg/mL (≈ 2.21 µM) | 0.78 µg/mL (≈ 1.1 µM) | > 100 µg/mL | > 100 µg/mL | > 100 µg/mL | ≤ 0.005 µg/mL | – | > 100 µg/mL | 25 µg/mL (≈ 35.4 µM) | 0.39 µg/mL (≈ 0.552 µM) | 0.78 µg/mL (≈ 1.1 µM) | MIC [28]: 50 µg/mL (≈ 70.7 µM); MIC [29]: 1.56 µg/mL (≈ 2.21 µM); MIC [2]: 1.56 µg/mL (≈ 2.21 µM); MIC [6, 35]: > 100 µg/mL; MIC ([31]; unit assumed): 0.39 µg/mL (≈ 0.552 µM); MIC [8]: > 100 µg/mL; MIC ([9]; P. aeruginosa K799/61, unit assumed): 0.78 µg/mL (≈ 1.1 µM); MIC ([13]; E. coli H560, unit assumed): 12.5 µg/mL (≈ 17.7 µM); MIC [32, 37]: 0.05 µg/mL (≈ 0.0707 µM); MIC ([16]; unit assumed): > 100 µg/mL; MIC [24, 38]: 50 µg/mL (≈ 70.7 µM) |
| CCC1OC(=O)C(C)C(=O)C(C)C(OC2OC(C)CC(N(C)C)C2O)C(C)(OC)CC(C)C2=NCC(C)(CN(C)C)N3C(=O)OC1(C)C3C2C (stereo not shown) [Example 136] | > 100 µg/mL | 0.2 µg/mL (≈ 0.282 µM) | 0.1 µg/mL (≈ 0.141 µM) | 0.1 µg/mL (≈ 0.141 µM) | > 100 µg/mL | > 100 µg/mL | > 100 µg/mL | > 100 µg/mL | 6.2 µg/mL (≈ 8.75 µM) | 1.56 µg/mL (≈ 2.2 µM) | – | > 100 µg/mL | > 100 µg/mL | > 100 µg/mL | 0.02 µg/mL (≈ 0.0282 µM) | > 100 µg/mL | > 100 µg/mL | > 100 µg/mL | 0.78 µg/mL (≈ 1.1 µM) | 1.56 µg/mL (≈ 2.2 µM) | MIC [28]: > 100 µg/mL; MIC [29]: 1.56 µg/mL (≈ 2.2 µM); MIC [2]: 1.56 µg/mL (≈ 2.2 µM); MIC [6, 35]: > 100 µg/mL; MIC ([31]; unit assumed): 0.78 µg/mL (≈ 1.1 µM); MIC [8]: 100 µg/mL (≈ 141 µM); MIC ([13]; E. coli H560, unit assumed): 100 µg/mL (≈ 141 µM); MIC [32, 37]: 0.1 µg/mL (≈ 0.141 µM); MIC ([16]; unit assumed): > 100 µg/mL; MIC [24, 38]: > 100 µg/mL |
| CC[C@H]1OC(=O)[C@H](C)C(=O)[C@H](C)[C@@H](O[C@@H]2O[C@H](C)C[C@H](N(C)C)[C@H]2O)[C@](C)(OC)C[C@@H](C)C2=NC(COCc3ccc(Cl)cc3)C(COCc3ccc(Cl)cc3)N3C(=O)O[C@@]1(C)[C@H]3[C@H]2C (stereo partly shown) [Example 148] | – | 0.78 µg/mL (≈ 0.824 µM) | – | – | – | – | 12.5 µg/mL (≈ 13.2 µM) | – | – | – | – | – | – | – | 0.2 µg/mL (≈ 0.211 µM) | – | – | – | 1.56 µg/mL (≈ 1.65 µM) | 3.1 µg/mL (≈ 3.27 µM) | MIC ([5]; S. agalactiae CMX 508, listed as Ex 148, unit assumed): 0.39 µg/mL (≈ 0.412 µM); MIC ([7]; C. albicans CCH 442, listed as Ex 148, unit assumed): > 100 µg/mL; MIC ([31]; listed as Ex 148, unit assumed): 25 µg/mL (≈ 26.4 µM); MIC ([9]; P. aeruginosa K799/61, listed as Ex 148, unit assumed): 25 µg/mL (≈ 26.4 µM); MIC ([32]; S. pyogenes EES61, listed as Ex 148, unit assumed): 0.2 µg/mL (≈ 0.211 µM); MIC ([21]; S. pyogenes 930, listed as Ex 148, unit assumed): 6.2 µg/mL (≈ 6.55 µM) |
